Results on two compounds are retold here after patent US20230398237A1 (priority 2020, published 2023).

Where only a bound is given, the exact number is not on record here.

Series [1] in a line: Clearance efficiencies in urine and feces. Particulars: within 24 h post intravenous injection.
Excerpt: Then, the urine and feces were quantified based on fluorescence and each standard curve of conjugates were built in control urine and control feces.
For series [2] the following is noted: before elimination through the liver; cited from earlier work.
The subject of series [3] is serum proteins (fetal bovine serum). Put plainly: Serum protein binding test by agarose gel electrophoresis. It is filed as in vitro ADME. To be noted: 10% FBS, 37° C., 30 min. As for the experimental part:
Coomassie brilliant blue 250 (CBB) was used to stain FBS. Color pictures of CBB-stained protein were inserted.
All these samples were analyzed using 2% agarose gel electrophoresis. […] The fluorescence images were taken by Carestream In-vivo FX Pro imaging system under 790 nm/830 nm. Non-invasive fluorescence imaging of body with ICG-PEG conjugates and ex vivo images

The subject of series [4] is organic anion transporter. Put plainly: Probenecid inhibition studies (renal clearance efficiency). Type of series: in vivo, BALB/c mice. To be noted: 200 mg/kg probenecid i.p., urine at 30 min p.i. On the procedure:
BALB/c mice were pre-treated by intraperitoneal injection of 200 mg/kg probenecid and control group were treated by PBS. […] The mice were anesthetized under 3% isoflurane for 30 min under steady breath rate of 7-8 times per 15 sec. After 30 min, the urine was collected from bladder and quantified by fluorescence.

As for `CC1(C)C(/C=C/C=C/C=C/C=C2\N(CCCCS(=O)(=O)O)c3ccc4ccccc4c3C2(C)C)=[N+](CCCCS(=O)(=O)[O-])c2ccc3ccccc3c21` [ICG, Indocyanine green], the “clearance percentage in feces” value in series [1] is 85.3 % ID. Moreover, the “time retained in normal renal parenchyma” value in series [2] is listed as below 15 min. In series [3], the serum protein binding entry is reported as “completely binds protein”.
FITC-inulin: the “effect of probenecid on renal clearance efficiency” value in series [4] is reported as “no significant difference”.
